The text below walks through data of patent US10426774B2, “Methods of treating cancer having an active Wnt/β-catenin pathway” (DANA-FARBER CANCER INSTITUTE, INC., priority 2012, dated 2019).

For one series, the system named is zebrafish embryos. Kind of series: Zebrafish embryo gut formation (IFABP expression / gut reporter). It is filed as in vivo. As to conditions: morpholino microinjection 50 μM; gut reporter fluorescence 4 dpf, IFABP in situ hybridization 3 dpf. On the procedure:
FIG. 5: YES1 is essential for tumorgenicity of β-catenin-active cells. (A) V5 immune complexes were isolated from HuTu80 or SW480 cells stably expressing WT or Y357F V5-epitope-tagged YAP1 or control V5-LacZ Immune complexes were analyzed by immunoblotting with a phosphotyrosine antibody. (B) HuTu80 or SW480 cells stably expressing V5-epitope-tagged WT YAP1 were treated for 6 hr with 0.5 or 2 μM of dasatinib. V5 immune complexes were analyzed by immunoblotting with a phosphotyrosine antibody. (C) Transgenic IFABP:RFP zebrafish were injected with 50 μM of YAP1- or YES1-specific morpholinos. Red fluorescence was assessed 4 dpf, or IFABP expression was assessed 3 dpf by using whole-mount in situ hybridization with an IFABP-specific probe. (D) Embryos were exposed to 2 μM of dasatinib at 2 dpf, and IFABP expression was assessed after 24 hr by using whole-mount in situ hybridization.
Zebrafish were maintained according to institutional animal care and use committee (IACUC-BIDMC) protocols. Validated morpholinos (MO) (Gene-Tools, PhiloMath, Oreg.) designed against the ATG site of YES1 (5′-CC […]-3′, SEQ ID NO: 1) (Jopling and Hertog, 2007) or YAP1 (5′-[…]-3′, SEQ ID NO: 2) (Skouloudaki et al., 2009) were injected into WT or gut reporter (Tg(fabp2:RFP)as200) zebrafish at the one-cell stage. […]

In another series the test system is HCT116. Description: Small-molecule inhibitor proliferation assay (crystal violet), HCT116. In kind it is cell-based. As to conditions: Homo sapiens, HCT-116, 168 h, β-catenin pathway active, proliferation 7 d post treatment, read-out: IC50 Dasatinib. On the procedure: (§1) (A) The indicated cancer cell lines were treated with various concentrations of dasatinib and proliferation was measured 7 days post treatment. (B) HCT116 or (C) HuTu80 cells stably expressing a dastinib resistant YES1 (T348I) or SRC (T341I) were treated as in (A). (D) Representative picture of HCT116 cells treated as in (B).
(§2) 6000 cell/well were plated in 24-well plates and the indicated doses of dasatinib (Selleck, Houston) or vehicle was added 24 hr later. Proliferation was measured after 7 d by crystal violet staining.

For a further series, the system named is SW480. Description: Small-molecule inhibitor proliferation assay (crystal violet), SW480. It is filed as cell-based. To be noted: Homo sapiens, 168 h, β-catenin pathway active, proliferation 7 d post treatment, read-out: IC50 Dasatinib. On the procedure: as §1, §2
Another series relates to RKO. Kind of series: Small-molecule inhibitor proliferation assay (crystal violet), RKO. It is filed as cell-based. To be noted: Homo sapiens, 168 h, β-catenin pathway Non-active, proliferation 7 d post treatment, read-out: IC50 Dasatinib. How it is done: as §1, §2
For the next series, the system named is HuTu80. Description: Small-molecule inhibitor proliferation assay (crystal violet), HuTu80. It is filed as cell-based. As to conditions: Homo sapiens, 168 h, β-catenin pathway active, proliferation 7 d post treatment, read-out: IC50 Dasatinib. How it is done:
as §1, §2

In a further series the test system is Colo205. Description: Small-molecule inhibitor proliferation assay (crystal violet), Colo205. In kind it is cell-based. As to conditions: Homo sapiens, COLO 205, 168 h, β-catenin pathway active, proliferation 7 d post treatment, read-out: IC50 Dasatinib. On the procedure: as §1, §2
Another series relates to KM12. Description: Small-molecule inhibitor proliferation assay (crystal violet), KM12. To be noted: Homo sapiens, 168 h, β-catenin pathway Non-active, proliferation 7 d post treatment, read-out: IC50 Dasatinib. It is filed as cell-based. How it is done:
as §1, §2

A further series relates to DLD1. Description: Small-molecule inhibitor proliferation assay (crystal violet), DLD1. As to conditions: Homo sapiens, DLD-1, 168 h, β-catenin pathway active, proliferation 7 d post treatment, read-out: IC50 Dasatinib. In kind it is cell-based. How it is done: as §1, §2
The test system of a further series is HT55. Description: Small-molecule inhibitor proliferation assay (crystal violet), HT55. As to conditions: Homo sapiens, 168 h, β-catenin pathway active, proliferation 7 d post treatment, read-out: IC50 Dasatinib. It is filed as cell-based. On the procedure: as §1, §2
The next series deals with WT organoids. Description: Three-dimensional primary colon organoid culture, WT. To be noted: WT organoids treated with dasatinib. It is filed as cell-based, mouse. How it is done:
(A) Representative images of colon organoids derived from WT or APC null mice treated for 6 days with 100 nM of dasatinib. (B) Quantification of results in (A). Error bars represent SD from four replicates. Blank denotes wells where no organoids were added. (C) WT or AXIN1 mutant (Masterblind) zebrafish were treated with 2 μM of dasatinib from 6-8 dpf. Arrow indicates developing gut. (D) H&E staining of zebrafish in (C) width of epithelium is noted by bars. (E) The number of epithelial cells/section was measured in WT or AXIN1 mutant zebrafish treated with 2 μM of dasatinib or DMSO. Error bars represent the SD from 20 different sections from five treated fish. p value was calculated by using Student's t test.
(§3) Colons from Apc flox/flox; villin-CreER mice were dissected lengthwise and washed in cold PBS. 0.5-1 cm segment per dish was minced extensively on ice and embedded in a 3D collagen gel by using a double-dish culture system (Ootani et al., 2009). Tamoxifen (Sigma, 2 μM in ethanol) or vehicle (ethanol) was applied on the day of initial plating for 7 days to generate APC null or WT organoids.

In a further series the test system is APC null organoids. Kind of series: Three-dimensional primary colon organoid culture, APC null. In kind it is cell-based, mouse. As to conditions: 50 nM. How it is done: […] (B) Quantification of results in (A). Error bars represent SD from four replicates. Blank denotes wells where no organoids were added. (C) WT or AXIN1 mutant (Masterblind) zebrafish were treated with 2 μM of dasatinib from 6-8 dpf. Arrow indicates developing gut. (D) H&E staining of zebrafish in (C) width of epithelium is noted by bars. (E) The number of epithelial cells/section was measured in WT or AXIN1 mutant zebrafish treated with 2 μM of dasatinib or DMSO. Error bars represent the SD from 20 different sections from five treated fish. p value was calculated by using Student's t test.
as §3

For the molecule “5′-AGCAACATTAACAACTCACTTTAGG-3′ (morpholino backbone, further chemistry not given here) [YAP1 morpholino]”, the gut formation result with zebrafish embryos is on record as “dramatically inhibited”.

Turning to “5′-CC TCTTTACTCTTGACACAGCCCAT-3′ (CCTCTTTACTCTTGACACAGCCCAT; morpholino backbone, further chemistry not given here) [YES1 morpholino]”, the gut formation result in the series on zebrafish embryos is “dramatically inhibited”.

In the case of `Cc1nc(Nc2ncc(C(=O)Nc3c(C)cccc3Cl)s2)cc(N2CCN(CCO)CC2)n1` [dasatinib], the concentration for half-maximal inhibition (IC50) (commonly the concentration that inhibits the measured activity by half) in the series with HCT116 was 68 nM; with SW480 it was 50 nM; in the series on RKO, above 800 nM; with HuTu80, 70 nM; with Colo205, 80 nM; with KM12 it was above 800 nM. Besides, the IC50 came to 125 nM with DLD1 and 70 nM with HT55. Moreover, the “growth inhibition of WT organoids” value in the series with WT organoids is reported as 5%. The “decrease in growth of APC null organoids” value in the series on APC null organoids turned out to be 70%.
